Data from paper PMC7802075 (ACS Infectious Diseases, 2020).
Where two headings read alike, the source gives them in different places. Each block holds one compound with its values, some of them ahead of it. Where a SMILES comes first, the peptide text is derived from it.

Molecular target: T1, LmjIPCS (inositol phosphorylceramide synthase from L. major) (Leishmania major, UniProt E9AFX2)
T1 sequence (E9AFX2 1-338): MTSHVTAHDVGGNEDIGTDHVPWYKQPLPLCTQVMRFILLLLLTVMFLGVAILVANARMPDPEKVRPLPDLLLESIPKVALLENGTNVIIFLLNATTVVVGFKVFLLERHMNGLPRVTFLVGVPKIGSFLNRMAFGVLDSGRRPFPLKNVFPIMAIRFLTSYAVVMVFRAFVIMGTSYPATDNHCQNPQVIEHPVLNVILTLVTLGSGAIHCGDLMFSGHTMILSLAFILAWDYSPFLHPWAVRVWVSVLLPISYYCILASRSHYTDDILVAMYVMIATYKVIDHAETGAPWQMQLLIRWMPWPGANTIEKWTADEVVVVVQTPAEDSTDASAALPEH
Test: biochemical
Assay type: biochemical
Set-up: inhibition: dose or concentration left out as unconfirmed
Settings: for inhibition: read-out: inhibition LmjIPCS; for inhibition at 20000 µM: read-out: 20mM inhibition LmjIPCS

[1] = screening of NINDS set, sheet Screen 1
[2] = NINDS set screen, single concentration printed as 20mM

inhibition (NINDS set screen): 13%
SMILES: CCN(CC)CCNC(=O)COc1ccc(OC)cc1 [MEFEXAMIDE]

SMILES: O=C(O)c1cc2cc(Cc3cccnc3)ccc2o1 [FUREGRELATE]
inhibition at 20000 µM: -16%

SMILES: CC(=O)N[C@@H](CC(C)C)C(=O)O [ACETYL-L-LEUCINE]
inhibition at 20000 µM: 8%

20mM inhibition LmjIPCS (single concentration 20mM as printed, screening of NINDS set, sheet Screen 1): 1.59%
SMILES: CC(=O)Oc1ccc2c(c1)CC[C@@H]1[C@@H]2CC[C@]2(C)[C@@H](OC(C)=O)CC[C@@H]12 [ESTRADIOL DIACETATE]

SMILES: O=c1ccc2cc(O[C@@H]3O[C@H](CO)[C@@H](O)[C@H](O)[C@H]3O)c(O)cc2o1 [AESCULIN]
20mM inhibition LmjIPCS: 10%

inhibition [1]: 9%
SMILES: N[C@H](Cc1ccccc1)C(=O)O [D-PHENYLALANINE]

20mM inhibition LmjIPCS: 41%
SMILES: Oc1c(Cl)cc(Cl)cc1Sc1cc(Cl)cc(Cl)c1O [BITHIONOL]

inhibition (NINDS set screen): -24%
SMILES: CN1CCN(CC/C=C2/c3ccccc3Sc3ccc(S(=O)(=O)N(C)C)cc32)CC1 [THIOTHIXENE]

SMILES: CC(COc1ccccc1)N(CCCl)Cc1ccccc1 (stereo not drawn) [PHENOXYBENZAMINE]
inhibition at 20000 µM: 31%

inhibition: -1%
SMILES: CNC(C)C1CCC(N)C(OC2C(N)CC(N)C(OC3OCC(C)(O)C(NC)C3O)C2O)O1 (stereo not drawn) [GENTAMICIN]

inhibition (NINDS set screen): 15%
SMILES: CN1CC(=O)NC1=N [CREATININE]

SMILES: NS(=O)(=O)c1cc(C2(O)NC(=O)c3ccccc32)ccc1Cl (stereo not drawn) [CHLORTHALIDONE]
20mM inhibition LmjIPCS: 42%

inhibition: -6.5%
SMILES: O=C(O)Cc1ccccc1Nc1c(Cl)cccc1Cl [DICLOFENAC]

SMILES: C1CCc2nnnn2CC1 [PENTETRAZOL]
inhibition at 20000 µM: 16%

SMILES: CCCC(=O)Nc1ncnc2c1ncn2[C@@H]1O[C@@H]2COP(=O)(O)O[C@H]2[C@H]1OC(=O)CCC [BUCLADESINE]
inhibition at 20000 µM: -1.88%

SMILES: NCCc1c[nH]cn1 [HISTAMINE]
inhibition at 20000 µM: 4.39%

inhibition: 2.26%
SMILES: Cc1cc2nc3c(=O)[nH]c(=O)nc-3n(C[C@H](O)[C@H](O)[C@H](O)CO)c2cc1C [RIBOFLAVIN]

inhibition: 6%
SMILES: NC(=O)CN1CCCC1=O

inhibition (NINDS set screen): 29%
SMILES: CC(=O)OCC(COC(C)=O)OC(C)=O [TRIACETIN]

20mM inhibition LmjIPCS: 64%
SMILES: CNCCCN1c2ccccc2CCc2ccccc21 [DESIPRAMINE]

SMILES: CCN1C[C@]2(C)CC[C@H](OC)[C@@]34C1[C@]1(OCO[C@@]15C[C@H](OC)[C@H]1C[C@]3(O)[C@@H]5[C@H]1OC)[C@@H](OC(C)=O)[C@H]24 [DELTALINE]
inhibition at 20000 µM: 22%

inhibition: 13%
SMILES: NS(=O)(=O)c1cc2c(cc1Cl)NCNS2(=O)=O [HYDROCHLOROTHIAZIDE]

SMILES: CN/C(=N/CCSCc1nc[nH]c1C)NC#N [CIMETIDINE]
inhibition at 20000 µM: -0.386%

20mM inhibition LmjIPCS [2]: 55%
SMILES: CC[C@]12CCCN3CCc4c(n(c5ccccc45)C(=O)C1)[C@@H]32 [VINBURNINE]

SMILES: S=P(N1CC1)(N1CC1)N1CC1 [THIOTEPA]
inhibition at 20000 µM: 11%

SMILES: NCCCC[C@H](N)C(=O)N[C@@H](Cc1ccccc1)C(=O)N[C@@H](Cc1ccc(O)cc1)C(=O)O [LYSYLPHENYLALANYLTYROSINE] (H-Lys-Phe-Tyr-OH)
inhibition at 20000 µM: 4.61%

inhibition [1]: 9%
SMILES: CCCc1cc(C(N)=S)ccn1 [PROTHIONAMIDE]

SMILES: C#CC1(O)CC[C@H]2[C@@H]3CCC4=CC(=O)CC[C@@H]4[C@H]3CC[C@@]21CC (mixture of isomers) [NORGESTREL]
inhibition at 20000 µM: 17%

SMILES: COc1cc2c(cc1OC)-c1cc3ccc(OC)c(OC)c3c[n+]1CC2 [PALMATINE CHLORIDE]
inhibition: 16%

SMILES: CC(C)[N+]1(C)[C@@H]2CC[C@H]1C[C@@H](OC(=O)C(CO)c1ccccc1)C2 (stereo partly drawn) [IPRATROPIUM BROMIDE]
inhibition at 20000 µM: -7%

SMILES: O=C1c2c(O)ccc(O)c2C(=O)c2c(NCCNCCO)ccc(NCCNCCO)c21 [MITOXANTHRONE]
20mM inhibition LmjIPCS [2]: 63%

SMILES: Nc1ccc(C(=O)O)c(O)c1 [AMINOSALICYLATE SODIUM]
20mM inhibition LmjIPCS: 43%

inhibition: 1.29%
SMILES: CNC(=C[N+](=O)[O-])NCCSCc1ccc(CN(C)C)o1 [RANITIDINE]

SMILES: OC[C@@H]1CCCN2CCCC[C@H]12 [LUPININE]
inhibition at 20000 µM: 11%

inhibition: 9%
SMILES: CCc1ccc(CCOc2ccc(CC3SC(=O)NC3=O)cc2)nc1 (stereo not drawn) [PIOGLITAZONE]

SMILES: C[C@H](CCC(=O)[O-])[C@H]1CC[C@H]2[C@@H]3C(=O)C[C@@H]4CC(=O)CC[C@]4(C)[C@H]3CC(=O)[C@]12C.[Na+] [SODIUM DEHYDROCHOLATE]
20mM inhibition LmjIPCS: -6.4%

SMILES: CC[C@@H](C(=O)[C@@H](C)[C@@H](O)[C@H](C)[C@@H]1O[C@@H]([C@@H](CC)C(=O)O)CC[C@@H]1C)[C@H]1O[C@]2(C=C[C@@H](O)[C@]3(CC[C@@](C)([C@H]4CC[C@](O)(CC)[C@H](C)O4)O3)O2)[C@H](C)C[C@@H]1C [SALINOMYCIN]
inhibition at 20000 µM: 29%

inhibition (NINDS set screen): -6%
SMILES: O=C(CCCN1CCC2(CC1)C(=O)NCN2c1ccccc1)c1ccc(F)cc1 [SPIPERONE]

inhibition: 8.53%
SMILES: CCn1cc(C(=O)O)c(=O)c2cnc(N3CCCC3)nc21 [PIROMIDIC ACID]
